Measured values from US11304929B2, “Tosylacetate based compounds and derivatives thereof as PHGDH inhibitors” (priority 2017, dated 2022).
Read-outs that look alike come from different tables or passages of the source.

Experiments:
[1] = test system: MDA-MB-468; experiment: 13C3 Serine Assay MDA-MB-468 (13C3 serine levels by LC/MS/MS); assay type: cell-based; details: MDA-MB-468 cells, 13C3 serine levels by LC/MS/MS, read-out: IC50 (13CSERINE)
Method: Cells are cultivated in Medium I in a 75 mL flask.
Day 1: 5000 cells in 180 μL Medium I/well were seeded into a 96-well plate. Plates were incubated at 37° C. in a 5% CO2 incubator overnight.
Day 2: 10 mM DMSO stock from test compounds were serially pre-diluted with Medium I (See dilution scheme: for the first well 20 μL DMSO stock are diluted with 180 μL Medium I. From this 1000 μM solution further seven 1:3 (1+2) dilution are prepared with Medium I). 20 μL of these pre-dilutions are transferred in duplicates to the 96-well plate of Day 1. After incubation at 37° C. in a CO2 incubator for 1 hour the medium was removed, 100 μL PBS (tempered to room temperature) added and subsequently removed again.
180 μL Medium II were then added per well and 20 μL of serial dilutions of test compounds in Medium II (as described before) were transferred per well as above. After 180 minutes incubation at 37° C. in a CO2 incubator the medium was again cautiously removed.
After the addition of 100 μL methanol: H2O (80:20, v:v, pre-cooled to −80° C.) the plates were sealed immediately and frozen at −80° C.
At day of measurement plates were thawn, centrifuged and the supernatant evaporated. The samples were resuspended in 100 μl water for tandem mass spectrometry.
^13C3 serine levels were analyzed with LC/MS/MS using Multiple Reaction Monitoring (MRM).
IC50 values were computed from these values using a 4 parametric logistic model.

[2] = molecular target: PHGDH (Homo sapiens (Human), UniProt O43175); experiment: 3-Phosphoglycerate Dehydrogenase (PHGDH) Fluorescence Intensity Assay, run at two NAD/3-PG ratios: PHGDH_HIGH_NAD/3-PG (250 μM NAD/500 μM 3-PG) and PHGDH_500_NAD/3-PG (500 μM NAD/500 μM 3-PG); assay type: biochemical
Chain of PHGDH (O43175 2-533 limits assumed): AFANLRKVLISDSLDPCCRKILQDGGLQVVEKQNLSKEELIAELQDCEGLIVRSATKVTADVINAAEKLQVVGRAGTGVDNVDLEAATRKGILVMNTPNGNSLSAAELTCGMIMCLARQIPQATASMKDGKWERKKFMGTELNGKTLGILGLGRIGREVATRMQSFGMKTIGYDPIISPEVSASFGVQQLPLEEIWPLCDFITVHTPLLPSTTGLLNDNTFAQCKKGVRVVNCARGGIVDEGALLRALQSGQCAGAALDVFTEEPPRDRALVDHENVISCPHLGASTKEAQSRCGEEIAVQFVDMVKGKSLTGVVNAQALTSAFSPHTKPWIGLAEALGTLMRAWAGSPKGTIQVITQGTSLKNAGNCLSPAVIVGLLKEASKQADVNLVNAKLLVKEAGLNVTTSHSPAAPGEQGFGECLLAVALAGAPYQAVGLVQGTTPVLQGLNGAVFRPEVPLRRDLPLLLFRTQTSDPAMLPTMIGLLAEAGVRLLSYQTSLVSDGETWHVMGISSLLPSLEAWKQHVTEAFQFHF

[3] = 500 μM NAD/500 μM 3-PG, read-out: IC50 (PHGDH_500_NAD/3-PG)
[4] = 250 μM NAD/500 μM 3-PG, read-out: IC50 (PHGDH_HIGH_NAD/3-PG)

Row | Structure (SMILES) | IC50 [2, 4] [nM] | other results
1 | CONC(=O)CS(=O)(=O)c1ccc([C@@H](C)NC(=O)c2cc(-c3ccc(F)cc3)nn2C)cc1 [Example 15-004, 3-(4-fluorophenyl)-N-[(1R)-1-{4-[(methoxycarbamoyl)methanesulfonyl]phenyl}ethyl]-1-methyl-1H-pyrazole-5-carboxamide] | – | IC50 ([1]; Homo sapiens): 6270 nM
2 | CCOC(=O)CS(=O)(=O)c1ccc([C@@H](C)NC(=O)c2cc(-n3ccc4ccccc43)nn2C)cc1 [Example 15-005, ethyl 2-{4-[(1R)-1-{[3-(1H-indol-1-yl)-1-methyl-1H-pyrazol-5-yl]formamido}ethyl]benzenesulfonyl}acetate] | – | IC50 ([1]; Homo sapiens): 309 nM
3 | CCOC(=O)CS(=O)(=O)c1ccc([C@@H](C)NC(=O)c2cc(-n3ncc4ccccc43)nn2C)cc1 [Example 15-006, ethyl 2-{4-[(1R)-1-{[3-(1H-indazol-1-yI)-1-methyl-1H-pyrazol-5-yl]formamido}ethyl]benzenesulfonyl}acetate] | – | IC50 [1]: 73.3 nM
4 | C[C@@H](NC(=O)c1cc(-c2ccc(F)cc2)nn1C)c1ccc(S(=O)(=O)CC(=O)NOC2CCN(C)CC2)cc1 [Example 15-002, 3-(4-fluorophenyl)-1-methyl-N-[(1R)-1-[4-({[(1-methylpiperidin-4-yl)oxy]carbamoyl}methanesulfonyl)phenyl]ethyl]-1H-pyrazole-5-carboxamide] | – | IC50 ([1]; Homo sapiens): 85300 nM
5 | Cc1cc(Cl)c2cc(C(=O)N[C@H](C)c3ccc(S(=O)(=O)C(C)(C)C(N)=O)cc3)n(C)c2c1 [Example 15-007, N-[(1R)-1-[4-(1-carbamoyl-1-methylethanesulfonyl)phenyl]ethyl]-4-chloro-1,6-dimethyl-1H-indole-2-carboxamide] | – | IC50 ([1]; Homo sapiens): 3220 nM
6 | CCOC(=O)CS(=O)(=O)c1ccc([C@@H](C)NC(=O)c2cc(-c3ccccc3)n(C)n2)cc1 [Example 15-010, ethyl 2-{4-[(1R)-1-[(1-methyl-5-phenyl-1H-pyrazol-3-yl)formamido]ethyl]benzenesulfonyl}acetate] | – | IC50 ([1]; Homo sapiens): 1300 nM
7 | C[C@@H](NC(=O)c1cc(-c2ccc(F)cc2)nn1C)c1ccc(S(=O)(=O)CC(=O)NOCCN2CCOCC2)cc1 [Example 15-001, 3-(4-fluorophenyl)-1-methyl-N-[(1R)-1-[4-({[2-(morpholin-4-yl)ethoxy]carbamoyl}methanesulfonyl)phenyl]ethyl]-1H-pyrazole-5-carboxamide] | – | IC50 ([1]; Homo sapiens): 55400 nM
8 | Cc1cc2c(cc(C(=O)N[C@H](C)c3ccc([S+]([O-])CC(=O)OC(C)C)cc3)n2C)c(Cl)c1Cl (stereo partly drawn) [Example 13-011, propan-2-yl 2-{4-[(1R)-1-[(4,5-dichloro-1,6-dimethyl-1H-indol-2-yl)formamido]ethyl]benzenesulfinyl}acetate] | – | IC50 [2, 3]: 1740 nM
9 | COC(=O)CS(=O)(=O)c1ccc([C@H](C)NC(=O)c2cc(-c3ccccc3)nn2C)cn1 [Example 02-009, methyl 2-({5-[(1S)-1-[(1-methyl-3-phenyl-1H-pyrazol-5-yl)formamido]ethyl]pyridin-2-yl}sulfonyl)acetate] | > 100000 | –
10 | COC(=O)CS(=O)(=O)c1ccc([C@@H](C)NC(=O)c2cc3c(Cl)cc(C)c(C)c3n2C)cc1 [Example 01-015, methyl 2-{4-[(1R)-1-[(4-chloro-1,6,7-trimethyl-1H-indol-2-yl)formamido]ethyl]benzenesulfonyl}acetate] | 583 | –
11 | Cc1cc2c(cc(C(=O)N[C@H](CO)c3ccc(S(=O)(=O)CC(=O)OCCO)cc3)n2C)c(Cl)c1Cl [Example 09-036, 2-hydroxyethyl 2-{4-[(1S)-1-[(4,5-dichloro-1,6-dimethyl-1H-indol-2-yl)formamido]-2-hydroxyethyl]benzenesulfonyl}acetate] | – | IC50 [2, 3]: 107 nM
12 | CCC(CC)(C(=O)O)S(=O)(=O)c1ccc([C@@H](C)NC(=O)c2cc3c(Cl)cc(C)cc3n2C)cc1 [Example 07-001, 2-{4-[(1R)-1-[(4-chloro-1,6-dimethyl-1H-indol-2-yl)formamido]ethyl]benzenesulfonyl}-2-ethylbutanoic acid] | 10 | IC50 [2, 3]: 14 nM
13 | Cc1cc(Cl)c2cc(C(=O)N[C@H](CO)c3ccc(S(=O)(=O)CC(=O)OCCO)cc3)n(C)c2c1 [Example 09-034, 2-hydroxyethyl 2-{4-[(1S)-1-[(4-chloro-1,6-dimethyl-1H-indol-2-yl)formamido]-2-hydroxyethyl]benzenesulfonyl}acetate] | 52 | –
14 | Cc1cc2c(cc(C(=O)N[C@H](CO)c3ccc(S(=O)(=O)CC(=O)OCCO)cc3)n2C)c(F)c1F [Example 09-041, 2-hydroxyethyl 2-{4-[(1S)-1-[(4,5-difluoro-1,6-dimethyl-1H-indol-2-yl)formamido]-2-hydroxyethyl]benzenesulfonyl}acetate] | – | IC50 [2, 3]: 156 nM
15 | CC(C)OC(=O)C(C)(C)S(=O)(=O)c1ccc([C@@H](C)NC(=O)c2cc(-c3ccccc3)nn2C)cc1 [Example 06-005, propan-2-yl 2-methyl-2-{4-[(1R)-1-[(1-methyl-3-phenyl-1H-pyrazol-5-yl)formamido]ethyl]benzenesulfonyl}propanoate] | 15900 | –
16 | Cc1cc(Cl)c2cc(C(=O)N[C@H](C)c3ccc(S(=O)(=O)CC(=O)O)cc3)n(C)c2n1 [Example 03-015, 2-{4-[(1R)-1-({4-chloro-1,6-dimethyl-1H-pyrrolo[2,3-b]pyridin-2-yl}formamido)ethyl]benzenesulfonyl}acetic acid] | 41 | –
17 | COC(=O)CS(=O)(=O)c1ccc([C@@H](C)NC(=O)c2cc(-c3cccc4cc[nH]c34)nn2C)cc1 [Example 02-006, methyl 2-{4-[(1R)-1-{[3-(1H-indol-7-yl)-1-methyl-1H-pyrazol-5-yl]formamido}ethyl]benzenesulfonyl}acetate] | 1270 | –
18 | COc1cc(-c2cc(C(=O)N[C@H](C)c3ccc(S(=O)(=O)CC(=O)OC(C)C)cc3)n(C)n2)ccc1Cl [Example 02-013, propan-2-yl 2-{4-[(1R)-1-{[3-(4-chloro-3-methoxyphenyl)-1-methyl-1H-pyrazol-5-yl]formamido}ethyl]benzenesulfonyl}acetate] | 6120 | –
19 | CC(=O)OCC(COC(C)=O)COC(=O)CS(=O)(=O)c1ccc([C@@H](C)NC(=O)c2cc3c(Cl)cc(C)cc3n2C)cc1 [Example 09-022, 3-(acetyloxy)-2-[(acetyloxy)methyl]propyl 2-{4-[(1R)-1-[(4-chloro-1,6-dimethyl-1H-indol-2-yl)formamido]ethyl]benzenesulfonyl}acetate] | 431 | –
20 | COC(=O)C(C)S(=O)(=O)c1ccc([C@@H](C)NC(=O)c2cc3cc(Cl)ccc3n2C)cc1 (stereo partly drawn) [Example 05-006, methyl 2-{4-[(1R)-1-[(5-chloro-1-methyl-1H-indol-2-yl)formamido]ethyl]benzenesulfonyl}propanoate] | 3050 | –
21 | Cc1cc(Cl)c2cc(C(=O)N[C@H](C)c3ccc(S(=O)(=O)CC(=O)OC4COC4)cc3)n(C)c2c1 [Example 09-025, oxetan-3-yl 2-{4-[(1R)-1-[(4-chloro-1,6-dimethyl-1H-indol-2-yl)formamido]ethyl]benzenesulfonyl}acetate] | 72 | –
22 | CN1CCN(c2cc(Cl)c3cc(C(=O)N[C@H](CO)c4ccc(S(=O)(=O)CC(=O)O)cc4)n(C)c3c2)CC1 [Example 03-017, 2-{4-[(1S)-1-{[4-chloro-1-methyl-6-(4-methylpiperazin-1-yl)-1H-indol-2-yl]formamido}-2-hydroxyethyl]benzenesulfonyl}acetic acid] | 40 | IC50 [2, 3]: 146 nM
23 | CCOC(=O)CS(=O)(=O)c1ccc([C@@H](C)NC(=O)c2cc3cc(Cl)c(-c4cnn(CCN5CCOCC5)c4)cc3n2C)cc1 [Example 01-025, ethyl 2-{4-[(1R)-1-[(5-chloro-1-methyl-6-{1-[2-(morpholin-4-yl)ethyl]-1H-pyrazol-4-yl}-1H-indol-2-yl)formamido]ethyl]benzenesulfonyl}acetate] | 742 | –
24 | COC(=O)C(C)(C)S(=O)(=O)c1ccc([C@@H](CO)NC(=O)c2cc(-c3ccc(F)cc3)nn2C)cc1 [Example 06-008, methyl 2-{4-[(1S)-1-{[3-(4-fluorophenyl)-1-methyl-1H-pyrazol-5-yl]formamido}-2-hydroxyethyl]benzenesulfonyl}-2-methylpropanoate] | 8340 | –
25 | Cc1cc(-c2cc(C(=O)N[C@H](C)c3ccc(S(=O)(=O)CC(=O)OC(C)C)cc3)n(C)n2)ccc1F [Example 02-015, propan-2-yl 2-{4-[(1R)-1-{[3-(4-fluoro-3-methylphenyl)-1-methyl-1H-pyrazol-5-yl]formamido}ethyl]benzenesulfonyl}acetate] | 5490 | –
26 | Cc1cc(Cl)c2cc(C(=O)N[C@H](C)c3ccc(S(=O)(=O)CC(=O)OC(C)C)cc3)n(C)c2n1 [Example 01-036, propan-2-yl 2-{4-[(1R)-1-({4-chloro-1,6-dimethyl-1H-pyrrolo[2,3-b]pyridin-2-yl}formamido)ethyl]benzenesulfonyl}acetate] | 1830 | –
27 | Cc1cc2c(cc(C(=O)N[C@H](CO)c3ccc(S(=O)(=O)CC(=O)O)cc3)n2C)c(F)c1F [Example 03-012, 2-{4-[(1S)-1-[(4,5-difluoro-1,6-dimethyl-1H-indol-2-yl)formamido]-2-hydroxyethyl]benzenesulfonyl}acetic acid] | 8 | IC50 [2, 3]: 17 nM
28 | Cc1cc2c(cc(C(=O)N[C@H](CO)c3ccc([S+]([O-])CC(=O)OC(C)C)cc3)n2C)c(Cl)c1Cl (stereo partly drawn) [Example 13-009, propan-2-yl 2-{4-[(1S)-1-[(4,5-dichloro-1,6-dimethyl-1H-indol-2-yl)formamido]-2-hydroxyethyl]benzenesulfinyl}acetate] | 428 | IC50 [2, 3]: 797 nM
29 | Cc1cc2c(cc(C(=O)N[C@H](CO)c3ccc([S@@+]([O-])CC(=O)O)cc3)n2C)c(Cl)c1Cl [Example 12-001, 2-[(S)-4-[(1S)-1-[(4,5-dichloro-1,6-dimethyl-1H-indol-2-yl)formamido]-2-hydroxyethyl]benzenesulfinyl]acetic acid] | 7 | IC50 [2, 3]: 9 nM
